Data published in ChEMBL document CHEMBL4507316 (2021).

Legend:
[1] = biological target: Protein kinase C zeta type (Homo sapiens) (UniProt Q05513); assay: PKC-zeta ProQinase selectivity panel; conditions: Compound concentration 1.0 uM
[2] = biological target: Interleukin-1 receptor-associated kinase 1 (Homo sapiens) (UniProt P51617); assay: IRAK1 ProQinase selectivity panel; conditions: Compound concentration 1.0 uM
[3] = biological target: 3-phosphoinositide-dependent protein kinase 1 (Homo sapiens) (UniProt O15530); assay: PDK1 ProQinase selectivity panel; conditions: Compound concentration 1.0 uM
Sequence of 3-phosphoinositide-dependent protein kinase 1 (Homo sapiens) (O15530 whole entry, looked up): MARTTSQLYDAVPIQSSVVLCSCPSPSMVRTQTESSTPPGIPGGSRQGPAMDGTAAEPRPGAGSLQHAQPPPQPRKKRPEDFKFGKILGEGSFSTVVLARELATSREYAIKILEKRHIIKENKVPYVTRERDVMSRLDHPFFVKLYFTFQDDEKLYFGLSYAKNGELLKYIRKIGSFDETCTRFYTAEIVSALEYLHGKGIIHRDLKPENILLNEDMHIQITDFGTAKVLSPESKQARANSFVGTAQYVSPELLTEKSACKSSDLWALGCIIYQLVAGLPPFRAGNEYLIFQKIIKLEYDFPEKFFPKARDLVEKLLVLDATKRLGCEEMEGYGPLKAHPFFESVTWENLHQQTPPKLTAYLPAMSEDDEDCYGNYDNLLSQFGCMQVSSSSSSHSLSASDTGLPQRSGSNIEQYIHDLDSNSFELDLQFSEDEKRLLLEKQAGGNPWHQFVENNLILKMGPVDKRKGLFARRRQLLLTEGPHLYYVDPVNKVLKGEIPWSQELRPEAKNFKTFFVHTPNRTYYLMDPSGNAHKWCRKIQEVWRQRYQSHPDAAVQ

[4] = tested on: Proto-oncogene tyrosine-protein kinase receptor Ret (Homo sapiens), P07949 [Y791F]; assay: RET Y791F ProQinase selectivity panel; conditions: Compound concentration 1.0 uM
Sequence of Proto-oncogene tyrosine-protein kinase receptor Ret (Homo sapiens), P07949 [Y791F] (P07949 whole entry Y791F): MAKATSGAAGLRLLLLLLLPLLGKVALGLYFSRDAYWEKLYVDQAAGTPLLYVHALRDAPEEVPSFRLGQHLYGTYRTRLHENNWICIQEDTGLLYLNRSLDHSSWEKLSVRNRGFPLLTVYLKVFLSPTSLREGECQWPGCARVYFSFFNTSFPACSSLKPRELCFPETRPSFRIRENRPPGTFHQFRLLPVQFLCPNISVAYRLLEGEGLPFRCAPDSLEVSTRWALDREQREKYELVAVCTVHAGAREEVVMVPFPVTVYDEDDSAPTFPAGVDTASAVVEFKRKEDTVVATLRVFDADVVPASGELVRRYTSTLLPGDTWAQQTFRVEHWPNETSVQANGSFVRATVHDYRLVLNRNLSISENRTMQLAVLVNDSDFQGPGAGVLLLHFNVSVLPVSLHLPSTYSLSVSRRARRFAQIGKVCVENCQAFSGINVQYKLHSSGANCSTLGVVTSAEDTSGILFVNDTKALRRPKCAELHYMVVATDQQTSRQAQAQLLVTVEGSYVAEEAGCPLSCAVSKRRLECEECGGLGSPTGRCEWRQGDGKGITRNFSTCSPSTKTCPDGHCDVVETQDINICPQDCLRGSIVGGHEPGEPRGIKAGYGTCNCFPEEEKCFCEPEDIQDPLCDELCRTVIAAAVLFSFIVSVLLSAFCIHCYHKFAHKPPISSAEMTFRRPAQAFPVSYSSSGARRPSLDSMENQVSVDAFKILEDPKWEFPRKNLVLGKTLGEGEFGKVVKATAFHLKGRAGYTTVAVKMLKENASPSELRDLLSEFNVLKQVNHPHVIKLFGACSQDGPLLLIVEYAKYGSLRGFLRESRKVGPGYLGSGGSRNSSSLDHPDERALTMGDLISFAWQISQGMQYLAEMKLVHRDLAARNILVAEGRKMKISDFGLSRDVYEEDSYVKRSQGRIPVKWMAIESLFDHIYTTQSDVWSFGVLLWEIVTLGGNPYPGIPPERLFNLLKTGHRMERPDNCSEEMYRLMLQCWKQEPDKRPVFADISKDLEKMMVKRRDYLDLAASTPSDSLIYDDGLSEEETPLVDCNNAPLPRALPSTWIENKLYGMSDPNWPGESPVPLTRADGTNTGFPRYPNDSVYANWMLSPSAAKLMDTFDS

[5] = biological target: Inhibitor of nuclear factor kappa-B kinase subunit alpha (Homo sapiens) (UniProt O15111); assay: IKK-alpha ProQinase selectivity panel; conditions: Compound concentration 1.0 uM
Sequence of Inhibitor of nuclear factor kappa-B kinase subunit alpha (Homo sapiens) (O15111 whole entry): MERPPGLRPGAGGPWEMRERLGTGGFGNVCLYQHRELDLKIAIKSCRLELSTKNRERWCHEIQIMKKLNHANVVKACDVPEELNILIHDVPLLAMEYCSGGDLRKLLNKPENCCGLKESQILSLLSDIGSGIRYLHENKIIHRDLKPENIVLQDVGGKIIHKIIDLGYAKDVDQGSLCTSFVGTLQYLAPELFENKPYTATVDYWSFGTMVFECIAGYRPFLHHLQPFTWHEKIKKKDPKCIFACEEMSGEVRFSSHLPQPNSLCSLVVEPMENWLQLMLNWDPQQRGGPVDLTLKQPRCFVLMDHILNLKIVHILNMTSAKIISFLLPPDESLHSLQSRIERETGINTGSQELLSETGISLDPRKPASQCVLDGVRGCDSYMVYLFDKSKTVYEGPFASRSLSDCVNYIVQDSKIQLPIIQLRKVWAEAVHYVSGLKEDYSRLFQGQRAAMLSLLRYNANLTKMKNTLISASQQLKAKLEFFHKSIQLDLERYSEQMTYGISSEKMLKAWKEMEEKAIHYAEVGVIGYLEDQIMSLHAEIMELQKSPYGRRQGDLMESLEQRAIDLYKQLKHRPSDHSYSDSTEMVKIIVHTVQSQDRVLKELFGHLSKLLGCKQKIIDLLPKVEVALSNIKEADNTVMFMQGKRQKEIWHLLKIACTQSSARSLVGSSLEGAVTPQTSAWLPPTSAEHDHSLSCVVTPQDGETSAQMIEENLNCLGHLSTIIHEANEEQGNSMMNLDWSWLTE

[6] = biological target: 5-hydroxytryptamine receptor 5A (Homo sapiens) (UniProt P47898); conditions: Compound concentration 10.0 uM
[7] = biological target: Aurora kinase A (Homo sapiens) (UniProt O14965); assay: Aurora-A ProQinase selectivity panel; conditions: Compound concentration 1.0 uM
[8] = biological target: Serine/threonine-protein kinase PLK3 (Homo sapiens) (UniProt Q9H4B4); assay: PLK3 ProQinase selectivity panel; conditions: Compound concentration 1.0 uM
[9] = tested on: Epidermal growth factor receptor (Homo sapiens), P00533 [G719C]; assay: EGF-R G719C ProQinase selectivity panel; conditions: Compound concentration 1.0 uM
Sequence of Epidermal growth factor receptor (Homo sapiens), P00533 [G719C] (P00533 whole entry G719C): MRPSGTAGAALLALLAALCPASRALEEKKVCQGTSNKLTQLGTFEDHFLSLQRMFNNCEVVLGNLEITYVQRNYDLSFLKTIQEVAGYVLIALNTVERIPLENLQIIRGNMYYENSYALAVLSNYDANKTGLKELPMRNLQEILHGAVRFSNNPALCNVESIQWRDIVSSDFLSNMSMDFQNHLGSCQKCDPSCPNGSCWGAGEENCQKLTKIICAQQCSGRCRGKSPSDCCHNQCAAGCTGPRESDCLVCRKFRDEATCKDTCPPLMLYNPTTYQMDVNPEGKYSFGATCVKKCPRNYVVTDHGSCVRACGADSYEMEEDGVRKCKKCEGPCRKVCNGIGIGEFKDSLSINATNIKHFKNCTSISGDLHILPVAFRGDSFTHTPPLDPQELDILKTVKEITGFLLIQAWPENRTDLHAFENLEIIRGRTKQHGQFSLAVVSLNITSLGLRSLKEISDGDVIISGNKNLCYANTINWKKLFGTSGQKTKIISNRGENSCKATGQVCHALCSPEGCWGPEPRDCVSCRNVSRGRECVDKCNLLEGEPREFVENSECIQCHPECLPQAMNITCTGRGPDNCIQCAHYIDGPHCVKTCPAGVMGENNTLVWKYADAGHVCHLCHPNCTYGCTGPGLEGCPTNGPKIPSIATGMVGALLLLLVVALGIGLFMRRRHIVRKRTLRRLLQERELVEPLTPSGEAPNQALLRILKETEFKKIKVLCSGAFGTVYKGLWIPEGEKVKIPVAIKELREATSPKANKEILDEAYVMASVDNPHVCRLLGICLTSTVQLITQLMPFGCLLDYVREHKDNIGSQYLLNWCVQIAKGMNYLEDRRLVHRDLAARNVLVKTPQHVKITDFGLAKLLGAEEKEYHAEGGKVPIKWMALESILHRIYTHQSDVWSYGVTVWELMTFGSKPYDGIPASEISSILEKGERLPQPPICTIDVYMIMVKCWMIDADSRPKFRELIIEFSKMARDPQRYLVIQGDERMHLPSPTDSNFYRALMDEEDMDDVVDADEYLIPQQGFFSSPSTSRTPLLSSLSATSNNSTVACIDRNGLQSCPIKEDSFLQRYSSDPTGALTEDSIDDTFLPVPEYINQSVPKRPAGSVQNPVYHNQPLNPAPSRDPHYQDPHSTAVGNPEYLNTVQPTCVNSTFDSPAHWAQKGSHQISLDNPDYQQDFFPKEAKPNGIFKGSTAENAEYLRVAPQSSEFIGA

[10] = biological target: Mitogen-activated protein kinase kinase kinase 7 (Homo sapiens) (UniProt O43318); assay: MAP3K7/MAP3K7IP1 ProQinase selectivity panel; conditions: Compound concentration 1.0 uM
[11] = biological target: GABA-A receptor; anion channel (Rattus norvegicus) (UniProt O09028+P15431+P18506+P18508+P19969+P20236+P23574+P23576+P28471+P28473+P30191+P62813+P63079+P63138+Q91ZM7+Q9ES14); conditions: Compound concentration 10.0 uM
[12] = tested on: Hepatocyte growth factor receptor (Homo sapiens), P08581 [Y1230C]; assay: MET Y1230C ProQinase selectivity panel; conditions: Compound concentration 1.0 uM
[13] = biological target: Cyclin-dependent kinase 5/CDK5 activator 1 (Homo sapiens) (UniProt Q00535+Q15078); assay: CDK5/p25NCK ProQinase selectivity panel; format: protein-complex assay; conditions: Compound concentration 1.0 uM
[14] = biological target: Serine/threonine-protein kinase SIK2 (Homo sapiens) (UniProt Q9H0K1); assay: SNF1LK2 ProQinase selectivity panel; conditions: Compound concentration 1.0 uM
[15] = biological target: Alpha-1D adrenergic receptor (Homo sapiens) (UniProt P25100); conditions: Compound concentration 10.0 uM
Sequence of Alpha-1D adrenergic receptor (Homo sapiens) (P25100 whole entry): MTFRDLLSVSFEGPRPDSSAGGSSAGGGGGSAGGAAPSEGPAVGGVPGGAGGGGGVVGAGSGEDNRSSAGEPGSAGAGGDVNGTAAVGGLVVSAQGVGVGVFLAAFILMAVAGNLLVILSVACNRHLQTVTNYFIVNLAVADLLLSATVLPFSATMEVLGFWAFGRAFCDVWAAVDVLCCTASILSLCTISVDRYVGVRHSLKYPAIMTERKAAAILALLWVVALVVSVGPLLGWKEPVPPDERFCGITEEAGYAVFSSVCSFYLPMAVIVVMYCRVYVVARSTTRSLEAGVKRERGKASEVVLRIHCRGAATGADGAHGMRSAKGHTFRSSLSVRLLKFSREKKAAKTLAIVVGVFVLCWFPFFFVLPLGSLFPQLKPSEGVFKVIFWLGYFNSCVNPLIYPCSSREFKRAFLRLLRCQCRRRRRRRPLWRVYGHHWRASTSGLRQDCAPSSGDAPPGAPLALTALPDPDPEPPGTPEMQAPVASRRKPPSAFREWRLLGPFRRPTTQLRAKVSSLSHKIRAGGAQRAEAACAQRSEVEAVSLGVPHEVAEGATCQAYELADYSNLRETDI

[16] = biological target: Rho-associated protein kinase 1 (Homo sapiens) (UniProt Q13464); assay: ROCK1 ProQinase selectivity panel; conditions: Compound concentration 1.0 uM

Sequence of Interleukin-1 receptor-associated kinase 1 (Homo sapiens) (P51617 whole entry, looked up): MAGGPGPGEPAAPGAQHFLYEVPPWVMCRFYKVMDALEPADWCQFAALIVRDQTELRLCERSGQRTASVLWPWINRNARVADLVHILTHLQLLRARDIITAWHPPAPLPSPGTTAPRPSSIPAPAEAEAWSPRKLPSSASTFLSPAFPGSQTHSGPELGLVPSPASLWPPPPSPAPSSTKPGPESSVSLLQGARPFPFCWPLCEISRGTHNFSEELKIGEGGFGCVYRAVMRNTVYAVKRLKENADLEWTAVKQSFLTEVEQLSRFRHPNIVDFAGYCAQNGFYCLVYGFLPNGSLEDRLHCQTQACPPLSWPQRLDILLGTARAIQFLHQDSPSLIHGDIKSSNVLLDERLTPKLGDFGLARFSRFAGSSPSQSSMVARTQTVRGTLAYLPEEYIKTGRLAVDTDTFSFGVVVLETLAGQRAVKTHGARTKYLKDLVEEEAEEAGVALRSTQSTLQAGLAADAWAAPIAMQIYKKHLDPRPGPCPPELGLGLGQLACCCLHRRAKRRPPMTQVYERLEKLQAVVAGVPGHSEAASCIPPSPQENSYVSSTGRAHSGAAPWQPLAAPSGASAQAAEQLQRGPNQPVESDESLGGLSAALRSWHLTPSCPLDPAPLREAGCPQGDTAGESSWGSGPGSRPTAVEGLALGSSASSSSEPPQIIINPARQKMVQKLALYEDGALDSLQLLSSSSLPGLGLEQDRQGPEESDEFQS

O=C1c2ccc(Nc3ccc(F)cc3F)cc2CCc2ccc(OC[C@H](O)CO)cc21 [Skepinone-L]
inactive: % Residual activity with Skepinone-L [1] 109% | % Residual activity with Skepinone-L [2] 101% | % Residual activity with Skepinone-L [3] 97% | % Residual activity with Skepinone-L [4] 141% | % Residual activity with Skepinone-L [5] 88% | inhibition [6] 13.8% | % Residual activity with Skepinone-L [7] 99% | % Residual activity with Skepinone-L [8] 99% | % Residual activity with Skepinone-L [9] 74% | % Residual activity with Skepinone-L [10] 80% | inhibition [11] 12.8% | % Residual activity with Skepinone-L [12] 97% | % Residual activity with Skepinone-L [13] 99% | % Residual activity with Skepinone-L [14] 86% | inhibition [15] 19.5% | % Residual activity with Skepinone-L [16] 97%
